This is an account of results in US8003686B2, “Aryl derivatives of curcumin, demethoxycurcumin, bisdemethoxycurcumin or curcuminisoxazolide and their use as animal feed additives” (DSM IP Assets B.V., priority 2005, dated 2011).

What all share (assay): Inhibition of bacterial growth in broth culture, CFU counting
Assay type in all cases: cell-based

For assay [1], the system named is Staphylococcus hyicus (H). The note with it: 1000 μM; Staphylococcus hyicus from pig gastrointestinal content; counting after 24 hours at 37° C. The source says: (§1) The following bacteria were isolated from pig gastrointestinal content: Escherichia coli 0.94 (A), Escherichia coli 0.96 (B), Klebsiella pneumoniae (C), Salmonella typhimurium pF3127 (D), Salmonella enteritidis pF1338 (E), Enterococcus faecalis (F), Enterococcus faecium (G), Staphylococcus hyicus (H), Lactobacillus salivarius (I) and Lactobacillus acidophilus 3 (J). Their identities were confirmed by microscopic examination after gram staining and biochemical testing using the appropriate API system. Test strains were maintained in tryptic soy broth (named BTS; […] Overnight cultures of the test organisms were diluted in tryptic soy broth to the final concentration used for inoculation of the assay. Pure bacteria were counted on tryptic soy agar (Merck, Darmstadt, Germany) after aerobical incubation at 37° C. during 24 hours. […] Sterilized nutrient broth was prepared using tryptic soy broth (Merck, Darmstadt, Germany), and 4.4 ml of it was added to each test tube. 500 μl of each of the dilutions and 100 μl of bacteria, diluted to the appropriate inoculum size (2×10^4 to 10^5 CFU/ml), was added to the test tubes. […] Becton […], France). The final concentration of each derivative was […]. The tubes and the microtiter plates were incubated during 24 to 48 hours (depending of the bacteria tested) at 37° C. and under agitation. Inhibition of growth was determined by bacterial counting after 24 hours of incubation. […] All bacterial counts were realized with two replicate plates. In general, each assay was performed in two replicates. The reduction of bacterial growth was determined by subtracting the number of the bacteria of the test culture after 24 hours from the number of bacteria of the control culture. The colonies developed after incubation were counted, and the inhibitory effect was calculated according to Rico-Munoz and Davidson, J.

In the next assay the test system is Enterococcus faecium (G). The note with it: 1000 μM; Enterococcus faecium from pig gastrointestinal content; counting after 24 hours at 37° C.
From the text: as §1

The subject of assay [2] is Escherichia coli 0.94 (A). The note with it: 1000 μM; Escherichia coli 0.94 from pig gastrointestinal content; counting after 24 hours at 37° C.
From the text: as §1

The subject of assay [3] is Salmonella enteritidis pF1338 (E). Particulars: 1000 μM; Salmonella enteritidis pF1338 from pig gastrointestinal content; counting after 24 hours at 37° C.
From the text: as §1

For assay [4], the system named is Klebsiella pneumoniae (C). The note with it: 1000 μM; Klebsiella pneumoniae from pig gastrointestinal content; counting after 24 hours at 37° C.
From the text: as §1

Assay [5] has as its system Salmonella typhimurium pF3127 (D). Particulars: 1000 μM; Salmonella typhimurium pF3127 from pig gastrointestinal content; counting after 24 hours at 37° C.
From the text: as §1

The subject of assay [6] is Escherichia coli 0.96 (B). Particulars: 1000 μM; Escherichia coli 0.96 from pig gastrointestinal content; counting after 24 hours at 37° C.
From the text: as §1

Assay [7] deals with Lactobacillus salivarius (I). Particulars: 1000 μM; Lactobacillus salivarius from pig gastrointestinal content; counting after 24 hours at 37° C.
From the text: as §1

Assay [8] relates to Enterococcus faecalis (F). The note with it: 1000 μM; Enterococcus faecalis from pig gastrointestinal content; counting after 24 hours at 37° C.
From the text: as §1

On to “Curcumin diphosphate ammonium salt [derivative 2]”, for which the “Percentage of inhibition of growth of bacterial strain H” value in assay [1] stood at 2 ± 7%. In addition, the “Percentage of inhibition of growth of bacterial strain G” value with Enterococcus faecium (G) was 13 ± 6%. Moreover, in [2], the “Percentage of inhibition of growth of bacterial strain A” value was found to be 35 ± 41%. For the same substance, the “Percentage of inhibition of growth of bacterial strain E” value in assay [3] is recorded as 30 ± 34%. Moreover, in assay [4], the “Percentage of inhibition of growth of bacterial strain C” value stood at 25 ± 5%. The “Percentage of inhibition of growth of bacterial strain D” value in assay [5] stood at 40 ± 72%. Besides, the “Percentage of inhibition of growth of bacterial strain B” value in assay [6] is listed as 47 ± 28%. Besides, in [7], the “Percentage of inhibition of growth of bacterial strain I” value was determined as 64 ± 50%.
With curcumindipalmitate [Example 1], the “Percentage of inhibition of growth of bacterial strain H” value in assay [1] is given as −4 ± 42%. Besides, the “Percentage of inhibition of growth of bacterial strain A” value in assay [2] is 62 ± 0.3%. Also, in [3], the “Percentage of inhibition of growth of bacterial strain E” value came to 14 ± 13%. Moreover, the “Percentage of inhibition of growth of bacterial strain C” value in [4] was 12 ± 4%. Further, in assay [5], the “Percentage of inhibition of growth of bacterial strain D” value came out at 33 ± 29%. Besides, the “Percentage of inhibition of growth of bacterial strain F” value in [8] was determined as 38 ± 34%. The “Percentage of inhibition of growth of bacterial strain B” value in assay [6] amounted to 59 ± 17%. Further, the “Percentage of inhibition of growth of bacterial strain I” value in [7] turned out to be 2%.
